Assay results taken from ChEMBL document CHEMBL2380193, “New trifluoromethyl quinolone derivatives: synthesis and investigation of antimicrobial properties” (2013).
Values after ≈ are worked out from the molar mass of the structure shown.

Assays:
Staphylococcus aureus [1] = assay: Antibacterial activity against Staphylococcus aureus MTCC 096 assessed as zone of inhibition at 100 ug/ml after 14 hrs by cup plate method; format: functional; settings: MTCC 096, 14 h, read-out: IZ
Escherichia coli [2] = assay: Antibacterial activity against Escherichia coli MTCC 443 assessed as zone of inhibition at 100 ug/ml after 14 hrs by cup plate method; format: functional; settings: MTCC 443, 14 h, read-out: IZ
Klebsiella pneumoniae [3] = assay: Antibacterial activity against Klebsiella pneumoniae MTCC 432 after 14 hrs by serial dilution method; format: functional; settings: MTCC 432, 14 h
Klebsiella pneumoniae [4] = assay: Antibacterial activity against Klebsiella pneumoniae MTCC 432 assessed as zone of inhibition at 100 ug/ml after 14 hrs by cup plate method; format: functional; settings: MTCC 432, 14 h, read-out: IZ
Bacillus subtilis [5] = assay: Antibacterial activity against Bacillus subtilis MTCC 441 assessed as zone of inhibition at 100 ug/ml after 14 hrs by cup plate method; format: functional; settings: MTCC 441, 14 h, read-out: IZ
Salmonella typhi [6] = assay: Antibacterial activity against Salmonella typhi MTCC 733 assessed as zone of inhibition at 100 ug/ml after 14 hrs by cup plate method; format: functional, Salmonella enterica subsp. enterica serovar Typhi; settings: Salmonella enterica, MTCC 733, 14 h; read-out: IZ
Bacillus subtilis [7] = assay: Antibacterial activity against Bacillus subtilis MTCC 441 after 14 hrs by serial dilution method; format: functional; settings: MTCC 441, 14 h
Aspergillus flavus [8] = assay: Antifungal activity against Aspergillus flavus MTCC 277 assessed as zone of inhibition at 100 ug/ml after 30 hrs by cup plate method; format: functional; settings: MTCC 277, 30 h, read-out: IZ
Candida albicans [9] = assay: Antifungal activity against Candida albicans MTCC 227 after 30 hrs by serial dilution method; format: functional; settings: MTCC 227, 30 h
Escherichia coli [10] = assay: Antibacterial activity against Escherichia coli MTCC 443 after 14 hrs by serial dilution method; format: functional; settings: MTCC 443, 14 h
Aspergillus niger [11] = assay: Antifungal activity against Aspergillus niger MTCC 282 assessed as zone of inhibition at 100 ug/ml after 30 hrs by cup plate method; format: functional; settings: MTCC 282, 30 h, read-out: IZ
Aspergillus fumigatus [12] = assay: Antifungal activity against Aspergillus fumigatus MTCC 343 after 30 hrs by serial dilution method; format: functional; settings: MTCC 343, 30 h
Aspergillus flavus [13] = assay: Antifungal activity against Aspergillus flavus MTCC 277 after 30 hrs by serial dilution method; format: functional; settings: MTCC 277, 30 h
Candida albicans [14] = assay: Antifungal activity against Candida albicans MTCC 227 assessed as zone of inhibition at 100 ug/ml after 30 hrs by cup plate method; format: functional; settings: MTCC 227, 30 h, read-out: IZ
Staphylococcus aureus [15] = assay: Antibacterial activity against Staphylococcus aureus MTCC 096 after 14 hrs by serial dilution method; format: functional; settings: MTCC 096, 14 h
Aspergillus fumigatus [16] = assay: Antifungal activity against Aspergillus fumigatus MTCC 343 assessed as zone of inhibition at 100 ug/ml after 30 hrs by cup plate method; format: functional; settings: MTCC 343, 30 h, read-out: IZ
Salmonella typhi [17] = assay: Antibacterial activity against Salmonella typhi MTCC 733 after 14 hrs by serial dilution method; format: functional, Salmonella enterica subsp. enterica serovar Typhi; settings: Salmonella enterica, MTCC 733, 14 h
Aspergillus niger [18] = assay: Antifungal activity against Aspergillus niger MTCC 282 after 30 hrs by serial dilution method; format: functional; settings: MTCC 282, 30 h

Row | SMILES | zone of inhibition at 100 µg/mL (Staphylococcus aureus [1]) | zone of inhibition at 100 µg/mL (Escherichia coli [2]) | MIC (Klebsiella pneumoniae [3]) | zone of inhibition at 100 µg/mL (Klebsiella pneumoniae [4]) | zone of inhibition at 100 µg/mL (Bacillus subtilis [5]) | zone of inhibition at 100 µg/mL (Salmonella typhi [6]) | MIC (Bacillus subtilis [7]) | zone of inhibition at 100 µg/mL (Aspergillus flavus [8]) | MIC (Candida albicans [9]) | MIC (Escherichia coli [10]) | zone of inhibition at 100 µg/mL (Aspergillus niger [11]) | MIC (Aspergillus fumigatus [12]) | MIC (Aspergillus flavus [13]) | zone of inhibition at 100 µg/mL (Candida albicans [14]) | MIC (Staphylococcus aureus [15]) | zone of inhibition at 100 µg/mL (Aspergillus fumigatus [16]) | MIC (Salmonella typhi [17]) | MIC (Aspergillus niger [18])
1 | O=C(O)c1cn(C2CC2)c2cc(N3CCNCC3)c(F)cc2c1=O [CIPROFLOXACIN] | 17 mm | 18 mm | 6.25 µg/mL (≈ 18.9 µM) | 18 mm | 18 mm | 14 mm | 6.25 µg/mL (≈ 18.9 µM) | – | – | – | – | – | – | – | – | – | – | –
2 | Cc1ccc2c(c1)c(=O)cc(C(F)(F)F)n2CCCCN1C(=O)c2ccccc2C1=O | 15 mm | < 10 mm | 12.5 µg/mL (≈ 29.2 µM) | 13 mm | 15 mm | 13 mm | 6.25 µg/mL (≈ 14.6 µM) | 12 mm | 6.25 µg/mL (≈ 14.6 µM) | 25 µg/mL (≈ 58.4 µM) | 12 mm | 25 µg/mL (≈ 58.4 µM) | 12.5 µg/mL (≈ 29.2 µM) | 15 mm | 6.25 µg/mL (≈ 14.6 µM) | < 10 mm | 12.5 µg/mL (≈ 29.2 µM) | 12.5 µg/mL (≈ 29.2 µM)
3 | CN1CCN(C/C=C/Cn2c(C(F)(F)F)cc(=O)c3cc(F)ccc32)CC1 | 15 mm | < 10 mm | 12.5 µg/mL (≈ 32.6 µM) | 12 mm | 14 mm | 12 mm | 6.25 µg/mL (≈ 16.3 µM) | 12 mm | 6.25 µg/mL (≈ 16.3 µM) | 50 µg/mL (≈ 130 µM) | 12 mm | 12.5 µg/mL (≈ 32.6 µM) | 12.5 µg/mL (≈ 32.6 µM) | 15 mm | 6.25 µg/mL (≈ 16.3 µM) | 12 mm | 12.5 µg/mL (≈ 32.6 µM) | 12.5 µg/mL (≈ 32.6 µM)
4 | O=C1c2ccccc2C(=O)N1CCCCOc1cc(C(F)(F)F)nc2ccc(F)cc12 | 15 mm | < 10 mm | 12.5 µg/mL (≈ 28.9 µM) | 12 mm | 15 mm | 12 mm | 6.25 µg/mL (≈ 14.5 µM) | 12 mm | 6.25 µg/mL (≈ 14.5 µM) | 25 µg/mL (≈ 57.8 µM) | 17 mm | 12.5 µg/mL (≈ 28.9 µM) | 12.5 µg/mL (≈ 28.9 µM) | 15 mm | 6.25 µg/mL (≈ 14.5 µM) | 12 mm | 12.5 µg/mL (≈ 28.9 µM) | 6.25 µg/mL (≈ 14.5 µM)
5 | CN1CCN(CCCCn2c(C(F)(F)F)cc(=O)c3cc(F)ccc32)CC1 | 15 mm | < 10 mm | 25 µg/mL (≈ 64.9 µM) | < 10 mm | 15 mm | < 10 mm | 6.25 µg/mL (≈ 16.2 µM) | < 10 mm | 12.5 µg/mL (≈ 32.4 µM) | 50 µg/mL (≈ 130 µM) | 14 mm | 12.5 µg/mL (≈ 32.4 µM) | 25 µg/mL (≈ 64.9 µM) | 12 mm | 6.25 µg/mL (≈ 16.2 µM) | 12 mm | 50 µg/mL (≈ 130 µM) | 6.25 µg/mL (≈ 16.2 µM)
6 | O=C1c2ccccc2C(=O)N1CCCCn1c(C(F)(F)F)cc(=O)c2cc(F)ccc21 | 15 mm | < 10 mm | 12.5 µg/mL (≈ 28.9 µM) | 13 mm | 13 mm | 13 mm | 12.5 µg/mL (≈ 28.9 µM) | < 10 mm | 6.25 µg/mL (≈ 14.5 µM) | 50 µg/mL (≈ 116 µM) | 17 mm | 12.5 µg/mL (≈ 28.9 µM) | 25 µg/mL (≈ 57.8 µM) | 17 mm | 6.25 µg/mL (≈ 14.5 µM) | 12 mm | 12.5 µg/mL (≈ 28.9 µM) | 6.25 µg/mL (≈ 14.5 µM)
7 | O=c1cc(C(F)(F)F)n(C/C=C/CN2CCCCC2)c2ccc(F)cc12 | 13 mm | < 10 mm | 12.5 µg/mL (≈ 33.9 µM) | 12 mm | 12 mm | < 10 mm | 12.5 µg/mL (≈ 33.9 µM) | < 10 mm | 12.5 µg/mL (≈ 33.9 µM) | 50 µg/mL (≈ 136 µM) | 17 mm | 25 µg/mL (≈ 67.9 µM) | 25 µg/mL (≈ 67.9 µM) | 12 mm | 12.5 µg/mL (≈ 33.9 µM) | < 10 mm | 25 µg/mL (≈ 67.9 µM) | 6.25 µg/mL (≈ 17 µM)
8 | O=c1cc(C(F)(F)F)n(C/C=C/CN2CCOCC2)c2ccc(F)cc12 | 12 mm | < 10 mm | 25 µg/mL (≈ 67.5 µM) | < 10 mm | 14 mm | < 10 mm | 6.25 µg/mL (≈ 16.9 µM) | < 10 mm | 6.25 µg/mL (≈ 16.9 µM) | 25 µg/mL (≈ 67.5 µM) | 17 mm | 25 µg/mL (≈ 67.5 µM) | 25 µg/mL (≈ 67.5 µM) | 15 mm | 12.5 µg/mL (≈ 33.8 µM) | < 10 mm | 50 µg/mL (≈ 135 µM) | 6.25 µg/mL (≈ 16.9 µM)
9 | O=C1c2ccccc2C(=O)N1CCCCOc1cc(C(F)(F)F)nc2ccccc12 | 16 mm | < 10 mm | 12.5 µg/mL (≈ 30.2 µM) | 12 mm | 16 mm | < 10 mm | 6.25 µg/mL (≈ 15.1 µM) | < 10 mm | 6.25 µg/mL (≈ 15.1 µM) | 50 µg/mL (≈ 121 µM) | 17 mm | 12.5 µg/mL (≈ 30.2 µM) | 25 µg/mL (≈ 60.3 µM) | 17 mm | 6.25 µg/mL (≈ 15.1 µM) | 12 mm | 25 µg/mL (≈ 60.3 µM) | 6.25 µg/mL (≈ 15.1 µM)
10 | O=c1cc(C(F)(F)F)n(CCCCN2CCCCC2)c2ccc(F)cc12 | 12 mm | < 10 mm | 12.5 µg/mL (≈ 33.7 µM) | 12 mm | < 10 mm | < 10 mm | 25 µg/mL (≈ 67.5 µM) | 12 mm | 6.25 µg/mL (≈ 16.9 µM) | 50 µg/mL (≈ 135 µM) | 12 mm | 25 µg/mL (≈ 67.5 µM) | 12.5 µg/mL (≈ 33.7 µM) | 15 mm | 12.5 µg/mL (≈ 33.7 µM) | < 10 mm | 50 µg/mL (≈ 135 µM) | 12.5 µg/mL (≈ 33.7 µM)
11 | Clc1ccc(COC(Cn2ccnc2)c2ccc(Cl)cc2Cl)c(Cl)c1 (configuration not stated) [MICONAZOLE] | – | – | – | – | – | – | – | 17 mm | 6.25 µg/mL (≈ 15 µM) | – | 17 mm | 12.5 µg/mL (≈ 30 µM) | 6.25 µg/mL (≈ 15 µM) | 17 mm | – | 14 mm | – | 6.25 µg/mL (≈ 15 µM)
